From patent US6900239B2, “Tumor chemopotentiation using isocoumarin derivatives” (ILWZ ILEX Products, Inc., priority 2000, dated 2005)

Assays:
[1] = test system: MDAMB-435 human breast tumor xenografts; assay: MDAMB-435 orthotopic model, NM-3 with 5-Fluorouracil; format: in vivo, female NCRNU nude mice; conditions: NM-3 100 mg/kg/day i.p. alone
Method: In order to evaluate the antitumor activity of NM-3 in combination with 5-Fluorouracil (5-FU) vs. MDAMB-435 human breast tumor xenografts, female NCRNU nude mice were implanted with MDAMB-435 cells into the subaxillary mammary fat pad. When the tumors were between 50 and 80 mm^3, NM-3 was administered via intraperitoneal (i.p.) injection daily at 10 and 100 mg/kg; 5-FU was administered via i.p. injection on days 0 and 14, at 10 mg/kg. Mice were weighed twice weekly, and tumor measurements were taken by calipers twice weekly. Mice were euthenized at the end of the treatment period. Upon termination, the mice were weighed, sacrificed and their tumors were excised.
Initial studies were conducted with 5-FU to determine the optimal dose of this agent when administered in combination with NM-3.

[2] = test system: Human umbilical vein endothelial cells (HUVEC); assay: HUVEC colony survival with increasing doses of X-rays; format: cell-based; conditions: highest X-ray dose
Method: In another study of HUVEC radiation sensitivity, cells were treated with NM-3 (100 ng/ml) 1 hr prior to exposure of the cells to increasing doses of gamma irradiation (X-rays). The numbers of HUVEC colonies that formed following the different treatments were recorded and normalized to the number of colonies formed under control conditions (see FIG. 2). Increasing doses of X-rays in the absence of NM-3 decreased HUvEC colony survival to a minimal value of 10% survival at the highest dose tested. In the presence of NM-3, HUVEC colony survival decreased to 0.01% of the initial living cells at the highest X-ray dose.

Ehrlich carcinoma = assay: Ehrlich solid tumor growth; format: in vivo, ICR mice; conditions: for Inhibition (%): days 1~14; for Mean Tumor Weight (mg ± S.D.): days 1~14, measured day 15
Method: To determine the antitumor effect of NM-3 on growth of a solid tumor in vivo, 4×10^6 Ehrlich carcinoma cells per mouse were subcutaneously transplanted into ICR mice (female, 6 weeks old) in the inguinal area. NM-3 was continuously administered via the oral route for 14 days. Tumor weights were then measured on day 15 (Table 2). […] Thus, NM-3 treatment is associated with a significant reduction in the growth of solid tumors.

LLC tumor = assay: LLC tumors, second experiment, complete cures; format: in vivo; conditions: NM-3 25 μg/kg daily over the first four days + 20 Gy X-irradiation on days 2 and 4
Method: In a second similar experiment, X-ray treatment and X-ray treatment combined with NM-3 treatment were again compared for their relative abilities to inhibit LLC tumor growth. However, the treatment period was extended to determine whether either treatment regimen was able to initiate complete tumor cures. Animals were injected with […] initially and starting tumor volumes were approximately 500 mm^3. Tumors were irradiated on days 2 and 4 with 20 Gy X-irradiation. NM-3 was administered at 25 μg/kg daily over the first four days. The tumors of both groups increased slightly in size following initiation of treatment and then began to decrease after several days. Tumors in the X-ray only group began to increase steadily in size after the 10th day of continuous treatment. In contrast, tumors in the NM-3+X-ray group continued to decrease in size following the initial growth phase. Ultimately, 9 of 10 animals receiving NM-3+X-ray treatment experienced a complete cure while only 3 of 10 animals were cured by the X-ray treatment alone.

[3] = test system: HT1080 (reticulum blast sarcoma cells); assay: Cell growth (WST-1) in the presence of NM-3; format: cell-based; conditions: Homo sapiens, HT-1080, 72 h; 3 days culture with NM-3
Method: (§1) To determine the extent to which NM-3 [2-(8-hydroxy-6-methoxy-1-oxo-1H-2-benzopyran-3-yl) propionic acid] inhibited the proliferation of, or was cytotoxic toward, human tumor cells and normal mouse cells, a variety of cell lines were grown in the presence of NM-3. The human cell lines used were K562 (leukemia cells), HT29 (colon tumor cells) HT1080 (reticulum blast sarcoma cells), and MCF7 (breast tumor cells). The mouse cells used were NIH3T3 cells (fibroblasts). All cell lines were cultured in 96-well plates to a density of 2-5×10^3 cells/well. Culture medium (RPMI 1640 plus 10% FBS) alone or containing NM-3 at one of several concentrations tested was then added to the cultures which were allowed to grow for an additional 3 days. To assess cell growth, 10 μl of WST-1 reagent (a chromogenic substrate for living cells) was added to each well and incubation continued for 3 hrs at 37° C. Absorbance at 450 nm was then determined using a plate reader.

HT29 (colon tumor cells) = assay: Cell growth (WST-1) in the presence of NM-3; format: cell-based; conditions: Homo sapiens, HT-29, 72 h; 3 days culture with NM-3
Method: as §1

[4] = test system: MCF7 (breast tumor cells); assay: Cell growth (WST-1) in the presence of NM-3; format: cell-based; conditions: Homo sapiens, MCF7, 72 h; 3 days culture with NM-3
Method: as §1

K562 (leukemia cells) = assay: Cell growth (WST-1) in the presence of NM-3; format: cell-based; conditions: Homo sapiens, K562, 72 h; 3 days culture with NM-3
Method: as §1

[5] = test system: NIH3T3 cells (fibroblasts); assay: Cell growth (WST-1) in the presence of NM-3; format: cell-based; conditions: Mus musculus, NIH3T3, 72 h; 3 days culture with NM-3
Method: as §1

colon 26 adenocarcinoma = assay: Combination with cyclophosphamide, survival; format: in vivo, BALB/c mice
Method: To determine the effect on tumor growth of NM-3 treatment combined with simultaneous cyclophosphamide treatment, colon 26 adenocarcinoma cells (5×10^4 cells per mouse) were subcutaneously transplanted into BALB/c mice (female, 7 weeks old) in the inguinal area. NM-3 was continuously orally administered from day 1 to day 72 after the transplantation except on day 14 when cyclophosphamide was dosed.

[6] = test system: MDAMB-435 human breast tumor xenografts; assay: MDAMB-435 orthotopic model, NM-3 with paclitaxel, first study; format: in vivo, female NCRNU nude mice; conditions: NM-3 100 mg/kg I.P. daily alone
Source text: In order to determine the effect of the combination of NM-3 with the cytotoxic drug, paclitaxel on human breast tumor xenografts, female NCRNU nude mice were implanted with MDAMB-435 cells into the subaxillary mammary fat pad. […]

[7] = NM-3 1 mg/kg p.o. days 1-13, 15-72 alone
[8] = NM-3 5 mg/kg p.o. days 1-13, 15-72 alone

With `COc1cc(O)c2c(=O)oc(C(C)C(=O)O)cc2c1` (stereo not shown) [NM-3, 2-(8-hydroxy-6-methoxy-1-oxo-1H-2-benzopyran-3-yl) propionic acid] the “% Tumor Growth Inhibition” value [1] was 24.1%, the HUVEC colony survival ([2]; NM-3 100 ng/ml 1 hr prior to irradiation) was 0.01% and the “Increase of sensitivity to X-ray induced lethality” value ([2]; NM-3 100 ng/ml) was “approximately 1000 fold”. The “Inhibition (%)” value (Ehrlich carcinoma; 0.63 mg/kg p.o.) was 33.1%, the “Inhibition (%)” value (Ehrlich carcinoma; 1.25 mg/kg p.o.) was 59.5% and the “Mean Tumor Weight (mg ± S.D.)” value (Ehrlich carcinoma; 1.25 mg/kg p.o.) was 497.7 ± 265.5 mg. For the same compound, the “Inhibition (%)” value (Ehrlich carcinoma; 2.5 mg/kg p.o.) was 57.7%, the “Mean Tumor Weight (mg ± S.D.)” value (Ehrlich carcinoma; 2.5 mg/kg p.o.) was 519.5 ± 319.3 mg and the “Inhibition (%)” value (Ehrlich carcinoma; 5 mg/kg p.o.) was 52.0%. The “Mean Tumor Weight (mg ± S.D.)” value (Ehrlich carcinoma; 5 mg/kg p.o.) was 589.7 ± 338.3 mg, the “Tumor size versus control” value (Ehrlich carcinoma; 1.25 to 5 mg/kg p.o.) was “significantly reduced in size” and the “Animals with complete cure” value (LLC tumor) was 9 of 10. For the same compound, the IC50 [3] was 300 µg/mL, the IC50 (HT29 (colon tumor cells)) was over 300 µg/mL and the IC50 [4] was 223 µg/mL. For the same compound, the IC50 (K562 (leukemia cells)) was 250 µg/mL, the IC50 [5] was over 100 µg/mL and the “Mean Survival Days (days ± S.D.)” value (colon 26 adenocarcinoma; [7]) was 33.9 ± 13.6 days. The “T/C (%)” value (colon 26 adenocarcinoma; [7]) was 102.7%, the “Mean Survival Days (days ± S.D.)” value (colon 26 adenocarcinoma; [8]) was 23.5 ± 3.7 days and the “T/C (%)” value (colon 26 adenocarcinoma; [8]) was 71.2%. The “Survival times versus control” value (colon 26 adenocarcinoma; NM-3 alone, 1 or 5 mg/kg) was “did not increase survival times”, the “% Tumor Growth Inhibition” value [6] was 15.29% and the “Final Tumor Wt. (mg) +/− SEM” value [6] was 180.0 ± 18.13 mg. The “Mice with Complete Shrinkage” value ([6]; n 9) was 0.
